In patent US12599671B2, “Compounds, compositions, and methods for protein degradation” (DANA-FARBER CANCER INSTITUTE, INC., priority 2020, dated 2026):

How the values were obtained:
Assay type in all cases: cell-based
SMARCA2 [1] = target: T1, SMARCA2 (Homo sapiens, UniProt P51531); experiment: Immunoblot of SMARCA2 in A549 cells; parameters: endogenous in cells; host or cells: A549; conditions: 1 μM
Method: (§1) Human A549 were seeded in 6-well plate and treated with Ex. 4 or Ex. 2 for 16, 24 and 40 h. Human MOLM13 were seeded in 6-well plate and treated with Ex. 4 for 6, 10, 16, 24 h. After treatment cells were harvested and lysed in RIPA buffer (Thermo Scientific) with Halt Protease and Phosphatase Inhibitor Cocktail (Thermo Scientific). Protein was extracted and quantified by BCA Protein Assay Kit (Pierce). Protein lysate was separated by NuPAGE 3-8% Tris-Acetate protein gels (Invitrogen) and detected by SMARCA2, PARP and β-ACTIN antibodies (Cell Signaling Technology).

[2] = test system: MV4; 11 WT, MV4; 11 CRBN KO, and MOLM13 cells; experiment: Cell growth ATPlite assay; conditions: Homo sapiens; ATP level by ATPlite, 48 h treatment, normalized to DMSO; cell line not given
Method: Human MV4; 11 WT, MV4; 11 CRBN KO, and MOLM13 cells were seeded in 384-well plate and treated with indicated compounds for 48 h. ATP level was measured by ATPlite (PerkinElmer) according to manufactures instructions. Experimental groups were measured in quadruplicate and ATP level was normalized to DMSO. IC50 was analyzed in GraphPad Prism 7.

SMARCA2 [3] = target: T1, SMARCA2; experiment: Immunoblot of SMARCA2 in MOLM13 cells; parameters: endogenous in cells
Method: as §1

T1 sequence (P51531 whole entry): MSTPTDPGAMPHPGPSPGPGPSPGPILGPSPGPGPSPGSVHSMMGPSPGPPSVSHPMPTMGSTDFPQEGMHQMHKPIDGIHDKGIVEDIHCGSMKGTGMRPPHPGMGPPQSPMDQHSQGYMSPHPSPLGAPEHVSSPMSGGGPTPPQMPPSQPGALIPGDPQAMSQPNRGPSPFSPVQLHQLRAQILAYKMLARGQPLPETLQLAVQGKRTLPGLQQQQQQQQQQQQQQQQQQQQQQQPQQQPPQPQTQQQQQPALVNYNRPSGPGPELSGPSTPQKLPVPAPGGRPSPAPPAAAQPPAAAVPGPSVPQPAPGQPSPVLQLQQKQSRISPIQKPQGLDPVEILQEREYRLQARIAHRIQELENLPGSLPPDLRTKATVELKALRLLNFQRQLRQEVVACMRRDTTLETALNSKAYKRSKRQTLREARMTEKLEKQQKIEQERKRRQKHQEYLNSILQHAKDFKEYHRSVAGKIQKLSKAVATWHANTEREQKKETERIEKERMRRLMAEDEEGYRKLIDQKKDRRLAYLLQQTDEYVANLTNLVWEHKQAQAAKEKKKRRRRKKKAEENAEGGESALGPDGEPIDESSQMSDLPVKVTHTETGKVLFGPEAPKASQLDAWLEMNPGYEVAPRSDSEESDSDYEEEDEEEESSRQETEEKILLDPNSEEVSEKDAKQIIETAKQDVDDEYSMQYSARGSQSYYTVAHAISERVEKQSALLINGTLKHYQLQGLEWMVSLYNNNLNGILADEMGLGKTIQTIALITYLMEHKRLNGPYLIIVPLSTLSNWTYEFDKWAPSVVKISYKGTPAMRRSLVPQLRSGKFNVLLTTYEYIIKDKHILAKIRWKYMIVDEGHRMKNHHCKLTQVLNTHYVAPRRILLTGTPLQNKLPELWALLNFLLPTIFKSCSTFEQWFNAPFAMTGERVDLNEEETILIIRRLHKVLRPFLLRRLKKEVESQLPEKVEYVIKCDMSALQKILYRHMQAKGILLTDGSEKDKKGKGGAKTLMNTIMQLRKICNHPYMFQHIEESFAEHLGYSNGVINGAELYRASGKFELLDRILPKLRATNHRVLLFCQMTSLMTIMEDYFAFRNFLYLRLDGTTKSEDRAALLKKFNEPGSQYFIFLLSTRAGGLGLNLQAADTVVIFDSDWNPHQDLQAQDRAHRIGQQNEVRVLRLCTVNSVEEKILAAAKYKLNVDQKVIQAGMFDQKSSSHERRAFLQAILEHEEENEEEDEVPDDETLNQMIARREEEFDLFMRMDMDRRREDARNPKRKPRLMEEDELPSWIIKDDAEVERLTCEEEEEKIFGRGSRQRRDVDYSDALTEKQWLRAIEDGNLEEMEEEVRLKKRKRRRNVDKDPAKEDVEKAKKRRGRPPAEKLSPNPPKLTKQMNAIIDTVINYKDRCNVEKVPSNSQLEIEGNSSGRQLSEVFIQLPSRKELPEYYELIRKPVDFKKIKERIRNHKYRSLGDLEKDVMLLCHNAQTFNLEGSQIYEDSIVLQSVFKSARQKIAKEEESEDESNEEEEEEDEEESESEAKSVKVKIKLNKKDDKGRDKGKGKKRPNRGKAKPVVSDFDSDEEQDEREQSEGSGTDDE

time after which cells started to exhibit protein degradation (Western Blot) (SMARCA2 [1]) [h]	time after which cells started to exhibit protein degradation (Western Blot) (SMARCA2 [3]) [h]	SMILES	IC50 [2] [µM]
40		O=C1CCC(N2C(=O)c3cccc(NCCCCCCCCNC(=O)c4cccc(C#Cc5cc(NC(=O)Nc6ccnc(Cl)c6)ccn5)c4)c3C2=O)C(=O)N1 (stereo not shown) [Example 2]	0.1 to 1
		O=C1CCC(N2C(=O)c3cccc(NCCOCCOCCNC(=O)c4cccc(C#Cc5cc(NC(=O)Nc6ccnc(Cl)c6)ccn5)c4)c3C2=O)C(=O)N1 (stereo not shown) [Example 3]	0.1 to 1
40	16	O=C1CCC(N2C(=O)c3cccc(NCCCCNC(=O)c4cccc(C#Cc5cc(NC(=O)Nc6ccnc(Cl)c6)ccn5)c4)c3C2=O)C(=O)N1 (stereo not shown) [Example 4]	≤ 0.1
		O=C1CCC(N2C(=O)c3ccc(NCCCCNC(=O)c4cccc(C#Cc5cc(NC(=O)Nc6ccnc(Cl)c6)ccn5)c4)cc3C2=O)C(=O)N1 (stereo not shown) [Example 7]	≤ 0.1
		O=C1CCC(N2C(=O)c3ccc(NCCOCCNC(=O)c4cccc(C#Cc5cc(NC(=O)Nc6ccnc(Cl)c6)ccn5)c4)cc3C2=O)C(=O)N1 (stereo not shown) [Example 8]	≤ 0.1
		Cc1ncsc1-c1ccc(CNC(=O)[C@@H]2C[C@@H](O)CN2C(=O)[C@@H](NC(=O)CCCCCNC(=O)c2cccc(C#Cc3cc(NC(=O)Nc4ccnc(Cl)c4)ccn3)c2)C(C)(C)C)cc1 [Example 9]	> 100
		Cc1ncsc1-c1ccc(CNC(=O)[C@@H]2C[C@@H](O)CN2C(=O)[C@@H](NC(=O)COCCOCCOCCNC(=O)c2cccc(C#Cc3cc(NC(=O)Nc4ccnc(Cl)c4)ccn3)c2)C(C)(C)C)cc1 [Example 10]	1 to 10
		O=C1CCC(N2C(=O)c3cccc(NCCNC(=O)c4cccc(C#Cc5cc(NC(=O)Nc6ccnc(Cl)c6)ccn5)c4)c3C2=O)C(=O)N1 (stereo not shown) [Example 11]	> 100
		O=C1CCC(N2C(=O)c3cccc(NCCCCCCNC(=O)c4cccc(C#Cc5cc(NC(=O)Nc6ccnc(Cl)c6)ccn5)c4)c3C2=O)C(=O)N1 (stereo not shown) [Example 12]	≤ 0.1
		O=C1CCC(N2C(=O)c3cccc(NCCCCCCCCCCCC(=O)OCc4cnc(Cl)cc4NC(=O)Nc4cc(C(F)F)ns4)c3C2=O)C(=O)N1 (stereo not shown) [Example 14]	1 to 10
